Test results taken from the NIST ThermoML archive (doi:10.1021/acs.jced.6b00350).

Settings: Liquid, Hot wire method

FC(F)CC(F)(F)F [1,1,1,3,3-pentafluoropropane]
Settings	thermal conductivity [W/m/K]
323.16 K, 330 kPa	0.08023
323.16 K, 19684 kPa	0.09037
323.16 K, 19687 kPa	0.09046
323.23 K, 13828 kPa	0.0878
323.23 K, 13836 kPa	0.08777
323.31 K, 8785 kPa	0.08509
323.31 K, 8786 kPa	0.08508
323.33 K, 69855 kPa	0.1079
323.33 K, 69859 kPa	0.1079
323.4 K, 58551 kPa	0.1046
323.41 K, 58550 kPa	0.1047
323.46 K, 49806 kPa	0.1018
323.46 K, 49813 kPa	0.1019
323.52 K, 40518 kPa	0.09873
323.52 K, 40523 kPa	0.09883
323.56 K, 33191 kPa	0.09593
323.57 K, 33190 kPa	0.0959
323.65 K, 26145 kPa	0.09305
323.65 K, 26148 kPa	0.09303
323.66 K, 4345 kPa	0.08263
323.67 K, 4353 kPa	0.08281
323.71 K, 19685 kPa	0.09038
323.72 K, 19683 kPa	0.09025
323.74 K, 330 kPa	0.08004
323.74 K, 331 kPa	0.08014
323.8 K, 13825 kPa	0.08771
323.8 K, 13826 kPa	0.08762
323.88 K, 8784 kPa	0.08522
323.89 K, 8785 kPa	0.08516
341.35 K, 31717 kPa	0.09048
341.36 K, 791 kPa	0.07387
341.36 K, 807 kPa	0.07373
341.36 K, 31723 kPa	0.09099
341.37 K, 4061 kPa	0.07637
341.37 K, 4066 kPa	0.07637
341.37 K, 8227 kPa	0.07909
341.38 K, 8222 kPa	0.07861
341.39 K, 12846 kPa	0.08132
341.4 K, 12858 kPa	0.08189
341.41 K, 18251 kPa	0.08455
341.42 K, 18258 kPa	0.08459
341.43 K, 24450 kPa	0.08726
341.44 K, 24457 kPa	0.08772
341.44 K, 39673 kPa	0.09407
341.44 K, 39675 kPa	0.0951
341.65 K, 48504 kPa	0.09719
341.66 K, 48505 kPa	0.09738
341.69 K, 58414 kPa	0.1006
341.71 K, 58417 kPa	0.101
341.73 K, 69248 kPa	0.1039
341.75 K, 69269 kPa	0.1038
341.77 K, 31709 kPa	0.09087
341.77 K, 31711 kPa	0.09067
341.79 K, 800 kPa	0.07352
341.79 K, 8213 kPa	0.07901
341.79 K, 8220 kPa	0.07915
341.8 K, 798 kPa	0.074
341.8 K, 4049 kPa	0.07607
341.8 K, 4060 kPa	0.07627
341.8 K, 12862 kPa	0.08133
341.8 K, 18252 kPa	0.08459
341.8 K, 18254 kPa	0.0841
341.81 K, 12851 kPa	0.08125
341.81 K, 24448 kPa	0.08731
341.81 K, 24452 kPa	0.08759
341.83 K, 39657 kPa	0.09382
341.83 K, 39667 kPa	0.09362
342.05 K, 48492 kPa	0.09719
342.06 K, 48492 kPa	0.09719
